Earlier results in US20030143648A1, “Enzyme activity profiles” (priority 2001, published 2003).

Tested on: FAAH
Settings: pH 8.0

CCCCCCCC/C=C\CCCCCCCC(N)=O [oleamide]
kcat of FAAH for oleamide: approximately 2 s −^1
